Experimental data taken from patent US20010012854A1, “MULTICATALYTIC PROTEASE INHIBITORS FOR USE AS ANTI-TUMOR AGENTS” (priority 1997, published 2001).
One block for each compound: values may come before it.

Key:
[1] = target: MCP chymotrypsin-like activity (Homo sapiens, UniProt P28074); assay: Inhibition of MCP chymotrypsin-like activity; format: biochemical
Source text: (§1) The rank-order potency for Jurkat cell killing precisely matched the order for MCP inhibition (Table 2, below).
Inhibition of the chymotrypsin-like activity of MCP by the disclosed MCP inhibitors has been reported, but these MCP inhibitors produced relatively little inhibition on the MCP trypsin-like activity and cathepsin B, a vacuolar cysteine protease (Iqbal, M., et al. J. Med Chem. 38: 2276-2277, 1995; Iqbal, M., et al. Bioorg. Med. Chem. Lett. 6: 287-290, 1996; and Harding, C. V., et al. J. Immuno. 155: 1767-1775, 1995). Furthermore, the order of potency for inhibition of the chymotrypsin-like activity was reported to be Compound A>Compound B>Compound C by using both isolated MCP and intact murine B cells (Iqbal, M., et al. J. Med Chem. 38: 2276-2277, 1995; Iqbal, M., et al. Bioorg. Med. Chem. Lett. 6: 287-290, 1996; and Harding, C. V., et al. J. Immuno. 155: 1767-1775, 1995).

[2] = test system: Jurkat Human T Cell Leukemia Line; assay: Jurkat cell viability assay (XTT reduction); format: cell-based; conditions: Jurkat cells, 24 hours, viability by XTT reduction, read-out: Toxicity (IC50)
Experimental: f. Cell viability assay. Jurkat cells were treated with MCP inhibitors or vehicle for 30 min. at 37° C. Next, ionomycin (1 μM) and the phorbol ester PMA (10 ng/ml) were added, together with 0.2% ethanol. After 24 h, cell viability was assessed by reduction of XTT (Sigma, X4251). To each well, 50 μl of XTT (1 mg/ml) and 25 μl PMS (Sigma 9625, 5 mM) were added. After 3 h at 37° C., the OD of each well was read at 450 nm/690 nm by a plate reader.
as §1

human Jurkat T cells = assay: Apoptosis in Jurkat T cells (flow cytometry sub-G1 DNA content, DNA fragmentation); format: cell-based; conditions: for Increase in the apoptotic population with sub-G1 DNA content: Jurkat T cells, 15 μM, 8 h
Experimental: (§2) c. Treatment of cells with MCP inhibitor. Cells were treated with a specified MCP Inhibitor, a standard anticancer agent (etoposide or cisplatin), or DMSO (vehicle). During this process, morphological changes and cellular detachment (for attached cell lines) were monitored. At each time point, cells were harvested, and used for measurement of apoptosis and other biochemical events. In Example 1, infra, involving YVAD-CMK, Compound A was first added to Jurkat T cells. This was followed immediately by dividing the cells into multiple tissue culture flasks. YVAD-CMK was then added to an indicated concentration.
(§3) d. Flow cytometry nuclear staining and DNA fragmentation assays. DNA content analysis using flow cytometry was performed as described previously (Nicoletti, I., et al. J. Immunol. Methods 139:271-279, 1992). To assay nuclear morphology, cells were washed with PBS, fixed with 70% ethanol for 1 h, and stained with Hoechst 33258 (1 mM) for 30 min. The nuclear morphology of cells was visualized by fluorescence microscope (OLYMPUS BH2). DNA fragmentation was assayed as described previously (Grant, S., et al. Cancer Res. 52:6270-6278, 1992).
(§4) Example 1 was designed to determine if MCP is involved in the survival signaling pathway(s) and if inhibition of MCP activity induces apoptosis. Human Jurkat T cells were treated with 30 μM Compound A for 4 h. […] Both the p112 and p115 forms of RB as p112-115/RB were combined and used as an apoptosis marker.
When human Jurkat T cells were treated with 15 μM Compound A for 8 h, there was a 23% increase in the apoptotic population with sub-G1 DNA content (FIG. 2, panels b vs. a). By comparison, when Compound B was used, only an 8%-increase in sub-G1 population was detected (FIG. 2, panels c vs. a).

[3] = test system: PARP, RB and caspase-3 cleavage in Jurkat T cells; assay: Western blot of caspase-3, PARP and RB in Jurkat T cells; format: cell-based, human; conditions: Jurkat T cells, 15 μM, time course up to 24 h
Experimental: (§5) e. Whole cell extracts and western blot assay. To prepare whole cell extracts, cells were washed with PBS, and homogenized in lysis buffer (50 mM Tris, pH 8.0, 5 mM EDTA, 150 mM NaCl, 0.5% Nonidet P-40, 0.5 mM PMSF and 0.5 mM dithiothreitol). Following 30 min rocking at 4° C., the lysates were centrifuged and the supernatants were collected as whole cell extracts. The protein samples were then analyzed by sodium dodecyl sulfate-6% polyacrylamide gel electrophoresis (20-60 μg protein per lane) followed by the enhanced chemiluminescence Western blot assay using specific antibodies to CPP32, PARP, p21, p27 or RB.
as §4
The ability of these three MCP inhibitors to induce changes in PARP and RB proteins in a parallel experiment was also investigated. […] This rank corresponded exactly to that of the three compounds for inhibition of the chymotrypsin-like activity in isolated proteasomes (Iqbal, M., et al. J. Med Chem. 38: 2276-2277, 1995; Iqbal, M., et al. Bioorg. Med. Chem. Lett. 6: 287-290, 1996) and in intact murine B cells (Harding, C. V., et al. J Immuno. 155: 1767-1775, 1995).

[4] = test system: human leukemia HL-60 cells; assay: Apoptosis in HL-60 cells (DNA fragmentation, PARP cleavage); format: cell-based
Experimental: as §3, §5
Example 1 was designed to determine if MCP is involved in the survival signaling pathway(s) and if inhibition of MCP activity induces apoptosis. Human Jurkat T cells were treated with 30 μM Compound A for 4 h. […]

[5] = test system: Jurkat cells transfected with a control vector; assay: Apoptotic nuclear changes (Hoechst staining) in Jurkat cells transfected with control vector; format: cell-based, human; conditions: 50 μM, 8 h
Experimental: (§6) b. Cell culture. Human Jurkat T and HL-60 cells were grown in RPMI 1640 (Life Technologies, Inc.) supplemented with 10% fetal calf serum (Sigma), 100 units/ml of penicillin, 100 μg/ml of streptomycin and 2mM L-glutamine (growth medium). Jurkat T. cells overexpressing the Bcl-2 oncoprotein or vector alone (provided by Dr. D. Johnson, University of Pittsburgh, Pa.) were grown in the same growth medium with […] G418. Human cancer cell lines of breast (MCF-7, MDA-MB-231), prostate (DU145, PC3) and osteosarcoma (U2-OS), obtained from American Type Culture Collection (ATCC. Rockville, Md.)), were also grown in the RPMI growth medium. Human oral (SCC-25; from ATCC) and brain (SNB-19; Welch, W. C., et al. In Vitro Cell. Dev. Biol., 31:610-616, 1995) cancer cell lines, and normal (WI-38) and SV40-transformed human fibroblasts (WI-38 VA-13; from ATCC) were grown in DMEM medium containing 10% fetal calf serum, penicillin, streptomycin and L-glutamine.
as §3
The apoptosis-inducing potency of Compound A was compared with two standard chemotherapeutic anti-cancer agents, etoposide and cisplatin. […] By comparison, treatment with 50 μM etoposide for 8 h induced only ˜47% of these cells to undergo apoptosis (FIG. 3, panels c vs. a). Treatment of 10 μM Compound A, but not etoposide or cisplatin, induced apoptosis in human prostate, breast, tongue and brain cancer cells and also in SV40 DNA virus-transformed human fibroblasts (see FIGS. 5-7).

[6] = test system: Bcl-2-overexpressing Jurkat cells; assay: Apoptosis in Bcl-2-overexpressing Jurkat cells (nuclear staining, western blot); format: cell-based, human
Experimental: as §6, §3, §5
It has been shown that overexpression of Bcl-2 oncoprotein inhibits apoptosis in many cell systems (Miura, M., et al., J. Cell 75: 653-660, 1993). Bcl-2 expression in human Jurkat T cells for inhibition of Compound A-induced apoptosis was investigated.

[7] = test system: Human prostate cancer PC-3 cells; assay: Detachment and apoptotic nuclear changes in PC-3 cells; format: cell-based; conditions: PC-3, 10 μM, 36 h
Experimental: as §2, §3
Human prostate cancer PC-3 cells were treated with 10 μM Compound A, etoposide, or an equal percentage of vehicle (DMSO), followed by separation of the attached and detached cell populations. Both attached and detached cell populations were then used for detection of apoptotic nuclear changes. After 36 h treatment with Compound A, ˜50% of PC-3 cells became detached.

[8] = test system: human prostate cancer DU145 cells; assay: Detachment and apoptotic nuclear changes in DU145 cells; format: cell-based; conditions: DU145, 16 h
Experimental: as §2, §3
Similar to PC-3, about half of human prostate cancer DU145 cells became detached after exposure to Compound A for 16 h.

[9] = test system: human breast cancer MDA-MB-231 cells; assay: Detachment and apoptotic nuclear changes in MDA-MB-231 cells; format: cell-based; conditions: MDA-MB-231, 24 h
Experimental: as §2, §3
(§7) Detachment was also found in at least half of human breast cancer MDA-MB-231 and MCF-7 cells, after exposure to Compound A for 24 h.

[10] = test system: human breast cancer MCF-7 cells; assay: Detachment and apoptotic nuclear changes in MCF-7 cells; format: cell-based; conditions: MCF-7, 24 h
Experimental: as §2, §3, §7

[11] = test system: SV40-transformed human fibroblasts (WI-38 VA13); assay: Detachment, apoptotic nuclear changes and PARP cleavage in SV40-transformed fibroblasts; format: cell-based; conditions: WI-38 VA13, 10 μM, up to 22 h
Experimental: as §2, §3, §5
(§8) Whether Compound A has, any selectivity in induction of apoptosis between transformed and normal cells was investigated. Normal human fibroblast cell line (WI-38) and its SV40-transformed derivative (WI-38 VA13) were utilized. […]

[12] = test system: Normal human fibroblast cell line (WI-38); assay: Detachment, apoptotic nuclear changes and PARP cleavage in normal fibroblasts; format: cell-based; conditions: normal WI-38, 10 μM, up to 22 h
Experimental: as §2, §3, §5, §8

[13] = test system: p21 and p27 in human breast cancer MDA-MB-231 cells; assay: Western blot of p21 and p27 levels in MDA-MB-231 cells; format: cell-based; conditions: MDA-MB-231, 17 hours, concentrations up to 100 μM
Experimental: as §5
Additionally, a band of 70 kDa whih may represent ubiquinated p70 was also observed. In contrast, etoposide caused only limited accumulation of p21 (≦4-fold) and p27 (≦2-fold) at 17 hours when used at concentrations up to 100 μM.

- IC50 [1]: 6 nM
Compound: CC(C)C[C@@H](C=O)NC(=O)[C@@H](CCCNC(=N)N[N+](=O)[O-])NC(=O)C(CCCCCCCCC#N)C1CCCC1 (some centres unmarked) [Compound B]
- IC50 [2]: 1600 nM
- Increase in the apoptotic population with sub-G1 DNA content (human Jurkat T cells): 8%
- Production of p85/PARP and p112-115/RB [3]: much less p85/PARP and p 112-115/RB were found before 8 h
- Internucleosomal fragmentation of DNA [4]: induced internucleosomal fragmentation of DNA

- IC50 [1]: 21 nM
Compound: CCNC(=O)C(=O)C(CC(C)C)NC(=O)C(CCCN/C(N)=N/[N+](=O)[O-])NC(=O)C(CCCCCCCCC#N)C1CCCC1 (centres unmarked) [Compound C]
- IC50 [2]: 9700 nM
- Increase in the apoptotic population with sub-G1 DNA content (human Jurkat T cells): did not induce apoptosis
- Production of p85/PARP and p112-115/RB [3]: only induced little p85/PARP and p112-115/RB after 24 h

Compound: COC(=O)CCCCCCCCC(C(=O)N[C@@H](CCCNC(=N)NS(=O)(=O)c1ccc2c(c1)CCC(C)(C)O2)C(=O)NC(C=O)CC(C)C)C1CCCC1 (some centres unmarked) [F]
- IC50 [2]: 1700 nM

- IC50 [1]: 10 nM
Compound: COC(=O)CCCCCCCCC(C(=O)N[C@@H](CCCNC(=N)NS(=O)(=O)c1ccc2c(c1)CCC(C)(C)O2)C(=O)N[C@H](C=O)CC(C)C)C1CCCC1 (some centres unmarked) [F]

- IC50 [1]: 20 nM
Compound: Cc1c(C)c(S(=O)(=O)NC(=N)NCCC[C@H](NC(=O)C(CCCCCCCCC#N)C2CCCC2)C(=O)N[C@H](C=O)CC(C)C)c(C)c2c1OC(C)(C)CC2 (some centres unmarked) [G]
- IC50 [2]: 5700 nM

- IC50 [1]: 300 nM
Compound: CC(C)CC(C=NNC(N)=O)NC(=O)C(CCCNC(=N)N[N+](=O)[O-])NC(=O)C(CCCCCCCCC#N)C1CCCC1 (centres unmarked) [H]
- IC50 [2]: > 30000 nM

Compound: COc1cc([C@@H]2c3cc4c(cc3[C@@H](O[C@@H]3O[C@@H]5CO[C@@H](C)O[C@H]5[C@H](O)[C@H]3O)[C@H]3COC(=O)[C@H]23)OCO4)cc(OC)c1O [etoposide, reference compound]
- Cells exhibiting apoptotic nuclear changes [5]: ~47%
- Effect of Bcl-2 expression on induced PARP and RB changes ([6]; 50 μM): inhibited these PARP and RB changes
- Effect of Bcl-2 expression on induced apoptotic nuclear changes ([6]; etoposide treatment as in FIG. 3 (50 μM, 8 h)): blocked the apoptotic nuclear changes induced by etoposide
- Detached cells [7]: Little or no detachment
- Nuclear morphology (apoptotic condensation and fragmentation) [7]: all the remaining attached cells contained normal, round nuclei
- Detached cells [8]: very little detachment
- Nuclear morphology [8]: the remaining attached cells still contained normal nuclei
- Apoptosis by nuclear staining [9]: did not induce apoptosis
- Apoptosis by nuclear staining [10]: did not induce apoptosis
- Detachment and apoptotic nuclear changes [11]: did not induce apoptosis in either transformed or normal WI-38 cells
- Detachment and apoptotic nuclear changes [12]: did not induce apoptosis in either transformed or normal WI-38 cells
- Accumulation of p21 [13]: ≤ 4 fold
- Accumulation of p27 [13]: ≤ 2 fold

Compound: Acetyl-YVAD-chloromethyl ketone [YVAD-CMK, reference compound]
- Block of Compound A-induced apoptotic events (apoptotic peak, caspase-3 processing, PARP cleavage, RB dephosphorylation and cleavage) (human Jurkat T cells; added to Compound A-treated Jurkat T cells): completely blocked
